Where a name gives a salt, the structure may show the parent alone.
What was measured:
[1] = Solution stability of salt forms (purity change relative to starting purity)
Text: As part of the program to improve the process for the manufacture of the sodium salt of (2S,5R)-2-(1,3,4-oxadiazol-2-yl)-7-oxo-1,6-diazabicyclo[3.2.1]octan-6-yl hydrogen sulfate, a new intermediate capable of isolation and utility in the production was sought.
Additionally, the picoline salt precursor was examined for solution stability as an alternative hold point for the process.

[2] = Stability of isolated solid picoline salt at 2 weeks; type: physicochemical; details: FIG. 23
Text: Also, the volume inefficiency, throughput bottlenecks, and impurity generation associated with the TBA to Na salt resin exchange process created the need for an improved step. Accordingly, there was a need for a stable solid that could be isolated, stored, and be used as needed to produce the desired sodium API in a reliable, scalable process. In screening different salt forms and examining the potential for crystallizations (as a means to isolate the salt forms), the TBA, pyridine, 5-ethyl-2-methylpyridine, and 2,6-lutidine forms of the API were not able to be successfully isolated in solid form.

[3] = Solubility characteristics of crystalline form; type: physicochemical; details: a particular (crystalline) form
Text: The compound of Formula (II) is the 2-picoline salt of (2S,5R)-2-(1,3,4-oxadiazol-2-yl)-7-oxo-1,6-diazabicyclo[3.2.1]octan-6-yl hydrogen sulfate, i.e., 2-methylpyridin-1-ium (2S,5R)-2-(1,3,4-oxadiazol-2-yl)-7-oxo-1,6-diazabicyclo[3.2.1]octan-6-yl sulfate.

| solution stability in dichloromethane solution ([1]; DCM, room temperature, compared with the TBA salt, FIGS. 22A and 22B) | stability in solution ([1]; in solution, early clinical productions) | stability of isolated solid [2] | solubility characteristics [3] | Molecule | solution stability in aqueous environments ([1]; aqueous solution, high dilution (~1 wt %), FIGS. 21A and 21B) |
| --- | --- | --- | --- | --- | --- |
| significantly inferior to the TBA salt | unstable in solution | found to be stable | low solubility | O=C1N2C[C@@H](CC[C@H]2c2nnco2)N1OS(=O)(=O)O [Formula (II), 2-methylpyridin-1-ium (2S,5R)-2-(1,3,4-oxadiazol-2-yl)-7-oxo-1,6-diazabicyclo[3.2.1]octan-6-yl sulfate] |  |
|  |  |  |  | tetrabutylammonium (2S,5R)-2-(1,3,4-oxadiazol-2-yl)-7-oxo-1,6-diazabicyclo[3.2.1]octan-6-yl sulfate [TBA salt, reference compound] | found to be a risk for long term scale-up |
